From paper PMC8175851, “Effects of Genetic Polymorphism in CYP2D6, CYP2C19, and the Organic Cation Transporter OCT1 on Amitriptyline Pharmacokinetics in Healthy Volunteers and Depressive Disorder Patients” (Frontiers in Pharmacology, 2021)
Like-named read-outs stand apart in the source and are kept apart here.

Columns and labels:
[1] = Plasma concentrations per dose unit of AT and NT in depressive disorder patients (75 mg AT twice daily); type: in vivo, human; details: 12-hour-trough levels
Description: Briefly, 75 mg AT was administered twice daily at 12 h dosing intervals. Any drugs or dietary ingredients that might interfere with CYP2D6 or CYP2C19 metabolism were avoided whenever possible. Blood samples (12-hour-trough levels) were taken on days 0, 7, 14, 18, and 21, centrifuged, and stored at 4°C for genotyping (CYP2D6 and CYP2C19) and concentration analyses. The blood samples were subsequently stored at −20°C and later genotyped for OCT1.
The serum concentrations in depressive disorder patients were determined either by the Emit® immunoassay specific for AT and NT or a commercial high-performance liquid chromatography assay (Bio-Rad Laboratories GmbH, Feldkirchen, Germany), as described before ([Steimer et al., 2004]; [Steimer et al., 2005]).
The correlation between AT and NT plasma AUC (study in healthy volunteers) or mean plasma concentration per dose unit (study in depressive disorder patients) and OCT1, CYP2D6, and CYP2C19 genotypes were calculated using the Jonckheere-Terpstra non-parametric analysis, which takes into consideration the a priori ordering (or trend) in gene activities from zero to normal to ultra-rapid (for CYP2C19 and CYP2D6). To do so, the genotypes were categorized into 0, 1, or 2 active alleles for OCT1, into 0, 0.5, 1, 1.5, 2, 2.5, or 3 active alleles for CYP2D6, and into 0, 1, 1.5, 2, 2.5, or 3 active alleles for CYP2C19, depending on their known effects on transporter/enzyme activity. OCT1 alleles *2, *3, *4, *5 were classified as being zero active. […] A semi-quantitative gene dosage was calculated for CYP2D6, as has been described earlier ([Steimer et al., 2004]). For calculating a CYP2C19 activity score, CYP2C19*2 was regarded as zero active, CYP2C19*1 was classified as 1, and CYP2C19*17 as 1.5. Additional multiple linear regression analyses included sex, age, body mass index, and glomerular filtration rate.

[2] = Pharmacokinetics of AT and NT in healthy volunteers after a single dose of 25 mg amitriptyline; type: in vivo, human; details: human, plasma, po, 25 mg, single oral 25 mg AT; for Cmax: read-out: Cmax
From the text: In order to enrich the study sample with the less frequent functionally deficient OCT1 variants, participants were selected based on OCT1 genotype from an internal database at the Institute of Clinical Pharmacology of the University Medical Center Göttingen. All volunteers who are listed in the internal database had agreed to it and the database was approved by the ethics committee of the University of Göttingen. […] Additional subjects with heterozygous genotypes were included to provide a better understanding of the effects of specific variants and the mode of inheritance. All volunteers gave their written informed consent before participation in the study. The study was approved by the ethics committee of the University of Göttingen and the German Federal Institute for Drugs and Medical Devices (BfArM). It was registered at the clinical trials databases Clinicaltrials.gov (NCT02054299) and EudraCT (number 2012-003546-33). […] Volunteers who underwent regular drug treatments other than oral contraceptives or who suffered from any relevant chronic illness, as well as pregnant or lactating women, were not included. All subjects were healthy according to a detailed medical history, medical examination, electrocardiogram, urine status and clinical chemistry, and haematology parameters (sodium, potassium, total bilirubin, aspartate aminotransferase, alanine-aminotransferase, creatinine, C-reactive protein, thyroid-stimulating hormone, haemoglobin, erythrocyte, thrombocyte, and leucocyte counts). […] After centrifugation (13,000 rpm, 15 min, room temperature), two-thirds of the supernatant were transferred to a new reaction tube and evaporated at 40°C under nitrogen flow. The residue was reconstituted under shaking in 0.1% methanoic acid and briefly centrifuged before quantification using a Nexera UHPLC system (Shimadzu, Kyoto, Japan) coupled to an API 4000 tandem mass spectrometer (AB Sciex, Darmstadt, Germany). […] PerkinElmer, Rodgau, Germany) with a Phenomenex C18 pre-column (4 × 2 mm, Phenomenex, Aschaffenburg, Germany). […] The lower limit of quantification was 0.5 ng/ml for AT and 0.1 ng/ml for NT. […] The mass spectrometry detection parameters are listed in Supplementary Table S1. For the study in healthy volunteers, the primary endpoints were the AUCs of plasma AT and NT concentrations. Secondary endpoints were the other pharmacokinetic parameters of AT and NT, as well as heart rate, blood pressure, pupil size effects, and possible adverse events (headache, fatigue, visual or hearing impairments, restlessness, nausea, dizziness, dry mouth, tremor, as well as sensations of hypothermia and heart palpitations determined using a visual analogue scale test). Pharmacokinetic parameters were calculated by non-compartmental analysis using Phoenix 64 WinNonlin version 6.3 (Certara Inc., Princeton, NJ, United States). AUCinf of AT was calculated from the time of dosing using the linear/log trapezoidal rule and extrapolated to infinity based on the last predicted concentration and using the terminal elimination rate constant (lambda z). AUC of NT was calculated from the time of dosing until the last measurement at 48 h using the linear/log trapezoidal rule, as a decline in NT concentrations was not observed in some subjects and extrapolation to infinity thus not possible.

[3] = both sexes, healthy volunteers, 0 active OCT1 alleles (n = 12)
[4] = both sexes, healthy volunteers, 1 active OCT1 allele (n = 9)
[5] = both sexes, healthy volunteers, 2 active OCT1 alleles (n = 14)
[6] = both sexes, healthy volunteers, CYP2C19 activity score 1 (n = 5), mean
[7] = both sexes, healthy volunteers, CYP2C19 activity score 1.5 (n = 2), mean
[8] = both sexes, healthy volunteers, CYP2C19 activity score 2 (n = 16), mean
[9] = both sexes, healthy volunteers, CYP2C19 activity score 2.5 (n = 10), mean
[10] = both sexes, healthy volunteers, CYP2D6 activity 0 (n = 3), mean
[11] = both sexes, healthy volunteers, CYP2D6 activity 0.5 (n = 2), mean
[12] = both sexes, healthy volunteers, CYP2D6 activity 1 (n = 10), mean
[13] = both sexes, healthy volunteers, CYP2D6 activity 1.5 (n = 6), mean
[14] = both sexes, healthy volunteers, CYP2D6 activity 2 (n = 11), mean
[15] = both sexes, healthy volunteers, CYP2D6 activity 2.5 (n = 1), mean
[16] = both sexes, healthy volunteers, CYP2D6 activity 3 (n = 2), mean
[17] = healthy volunteers, CYP2C19 activity score 0 (n = 1), mean
[18] = healthy volunteers, CYP2C19 activity score 3 (n = 1), mean

SMILES: CNCCC=C1c2ccccc2CCc2ccccc21 [Nortriptyline, nortriptyline]
- Mean plasma concentration per dose unit ([1]; OCT1 genotype *1 / *1 (n 27), mean ± standard deviation): 34.0 ± 18.3
- Mean plasma concentration per dose unit ([1]; OCT1 genotype *1 / *2 (n 14), mean ± standard deviation): 33.5 ± 14.6
- Mean plasma concentration per dose unit ([1]; OCT1 genotype *1 / *3 (n 2), mean ± standard deviation): 34.6 ± 12.4
- Mean plasma concentration per dose unit ([1]; OCT1 genotype *1 / *4 (n 1)): 39.6
- Mean plasma concentration per dose unit ([1]; OCT1 genotype *2 / *2 (n 3), mean ± standard deviation): 40.6 ± 26.7
- Mean plasma concentration per dose unit ([1]; OCT1 genotype *2 / *3 (n 2), mean ± standard deviation): 28.0 ± 13.2
- Mean plasma concentration per dose unit ([1]; OCT1 genotype *3 / *3 (n 1)): 29.9
- AUC(0-t) ([2]; both sexes, 35 healthy volunteers, read-out: AUC48h (range over all volunteers)): 39.3 to 284 ng·h/mL
- AUC(0-t) ([2]; both sexes, healthy volunteers, 0 active OCT1 alleles (n = 12), read-out: AUC48h): 90.2 ± 27.1 ng·h/mL
- Cmax [2, 3]: 2.7 ± 0.7 ng/mL
- AUC(0-t) ([2]; both sexes, healthy volunteers, 1 active OCT1 allele (n = 9), read-out: AUC48h): 88.3 ± 32.2 ng·h/mL
- Cmax [2, 4]: 2.6 ± 0.9 ng/mL
- AUC(0-t) ([2]; both sexes, healthy volunteers, 2 active OCT1 alleles (n = 14), read-out: AUC48h): 126 ± 63.5 ng·h/mL
- Cmax [2, 5]: 3.4 ± 1.4 ng/mL
- AUC(0-t) ([2]; both sexes, healthy volunteers, CYP2C19 activity score 1 (n = 5), mean, read-out: AUC48h): 69.4 ng·h/mL
- Cmax [2, 6]: 2.1 ng/mL
- AUC(0-t) ([2]; both sexes, healthy volunteers, CYP2C19 activity score 1.5 (n = 2), mean, read-out: AUC48h): 123 ng·h/mL
- Cmax [2, 7]: 3.5 ng/mL
- AUC(0-t) ([2]; both sexes, healthy volunteers, CYP2C19 activity score 2 (n = 16), mean, read-out: AUC48h): 103 ng·h/mL
- Cmax [2, 8]: 3 ng/mL
- AUC(0-t) ([2]; both sexes, healthy volunteers, CYP2C19 activity score 2.5 (n = 10), mean, read-out: AUC48h): 108 ng·h/mL
- Cmax [2, 9]: 3.1 ng/mL
- AUC(0-t) ([2]; both sexes, healthy volunteers, CYP2D6 activity 0 (n = 3), mean, read-out: AUC48h): 145 ng·h/mL
- Cmax [2, 10]: 3.48 ng/mL
- AUC(0-t) ([2]; both sexes, healthy volunteers, CYP2D6 activity 0.5 (n = 2), mean, read-out: AUC48h): 222 ng·h/mL
- Cmax [2, 11]: 5.54 ng/mL
- AUC(0-t) ([2]; both sexes, healthy volunteers, CYP2D6 activity 1 (n = 10), mean, read-out: AUC48h): 104 ng·h/mL
- Cmax [2, 12]: 2.94 ng/mL
- AUC(0-t) ([2]; both sexes, healthy volunteers, CYP2D6 activity 1.5 (n = 6), mean, read-out: AUC48h): 98.3 ng·h/mL
- Cmax [2, 13]: 2.79 ng/mL
- AUC(0-t) ([2]; both sexes, healthy volunteers, CYP2D6 activity 2 (n = 11), mean, read-out: AUC48h): 81.8 ng·h/mL
- Cmax [2, 14]: 2.57 ng/mL
- AUC(0-t) ([2]; both sexes, healthy volunteers, CYP2D6 activity 2.5 (n = 1), mean, read-out: AUC48h): 89.1 ng·h/mL
- Cmax [2, 15]: 3.11 ng/mL
- AUC(0-t) ([2]; both sexes, healthy volunteers, CYP2D6 activity 3 (n = 2), mean, read-out: AUC48h): 71.1 ng·h/mL
- Cmax [2, 16]: 2.49 ng/mL
- Tmax [2, 3]: 6.2 ± 1.4 h
- half-life [2, 3]: 46.1 ± 24.4 h
- Tmax [2, 4]: 6.7 ± 1.3 h
- half-life [2, 4]: 56.4 ± 31.3 h
- Tmax [2, 5]: 11.5 ± 8.7 h
- half-life [2, 5]: 40.1 ± 38.2 h
- Tmax [2, 6]: 6 h
- half-life [2, 6]: 48.2 h
- Tmax [2, 7]: 14.1 h
- half-life [2, 7]: 25.1 h
- Tmax [2, 8]: 6.6 h
- half-life [2, 8]: 47.7 h
- Tmax [2, 9]: 9.9 h
- half-life [2, 9]: 44.1 h
- Tmax [2, 10]: 18.9 h
- half-life [2, 10]: 92 h
- Tmax [2, 11]: 15.5 h
- half-life [2, 11]: 105 h
- Tmax [2, 12]: 6.2 h
- half-life [2, 12]: 64.2 h
- Tmax [2, 13]: 7 h
- half-life [2, 13]: 51.9 h
- Tmax [2, 14]: 7.7 h
- half-life [2, 14]: 29.9 h
- Tmax [2, 15]: 6 h
- half-life [2, 15]: 25 h
- Tmax [2, 16]: 6 h
- half-life [2, 16]: 26.9 h
- AUC(0-t) ([2]; both sexes, healthy volunteers, OCT1 genotype *1 / *1 (n 14), mean ± standard deviation, read-out: AUC48h): 126 ± 63 ng·h/mL
- AUC(0-t) ([2]; both sexes, healthy volunteers, OCT1 genotype *1 / *2 (n 3), mean ± standard deviation, read-out: AUC48h): 115 ± 24 ng·h/mL
- AUC(0-t) ([2]; both sexes, healthy volunteers, OCT1 genotype *1 / *3 (n 4), mean ± standard deviation, read-out: AUC48h): 78 ± 34 ng·h/mL
- AUC(0-t) ([2]; both sexes, healthy volunteers, OCT1 genotype *1 / *4 (n 2), mean ± standard deviation, read-out: AUC48h): 69 ± 17 ng·h/mL
- AUC(0-t) ([2]; both sexes, healthy volunteers, OCT1 genotype *2 / *2 (n 3), mean ± standard deviation, read-out: AUC48h): 109 ± 45 ng·h/mL
- AUC(0-t) ([2]; both sexes, healthy volunteers, OCT1 genotype *2 / *3 (n 4), mean ± standard deviation, read-out: AUC48h): 90 ± 27 ng·h/mL
- AUC(0-t) ([2]; both sexes, healthy volunteers, OCT1 genotype *2 / *5 (n 1), read-out: AUC48h): 83 ng·h/mL
- AUC(0-t) ([2]; both sexes, healthy volunteers, OCT1 genotype *3 / *3 (n 3), mean ± standard deviation, read-out: AUC48h): 77 ± 11 ng·h/mL
- AUC(0-t) ([2]; both sexes, healthy volunteers, OCT1 genotype *3 / *4 (n 1), read-out: AUC48h): 78 ng·h/mL
- AUC(0-t) ([2]; healthy volunteers, CYP2C19 activity score 0 (n = 1), mean, read-out: AUC48h): 39.3 ng·h/mL
- Cmax [2, 17]: 1.05 ng/mL
- AUC(0-t) ([2]; healthy volunteers, CYP2C19 activity score 3 (n = 1), mean, read-out: AUC48h): 284 ng·h/mL
- Cmax [2, 18]: 6.5 ng/mL
- Tmax [2, 17]: 6 h
- half-life [2, 17]: 106 h
- Tmax [2, 18]: 24.9 h
- half-life [2, 18]: 145 h
